The target in experiment [1] is T1, human TRPV1 receptor (hTRPV1) (Homo sapiens (Human), UniProt Q8NER1). Description: Acid activation assay (pH 5.0, FLIPR intracellular Ca2+). Conditions: Table 1; 37.5 μM antagonist, percentage of the maximal pH 5.0-induced response remaining; read-out: hTRPV1 H+ (max % remain). Format: cell-based. On the procedure:
Dulbecco's modified Eagle's medium (DMEM) with 4.5 mg/mL D-glucose, fetal bovine serum, L-glutamine, and 2-morpholinoethanesulfonic acid (MES) were purchased from Sigma-Aldrich Co. (St. Louis, Mo.). Dulbecco's phosphate-buffered saline (DPBS) with Ca^2+, Mg^2+, and 1 mg/mL D-glucose (pH 7.4), Geneticin®, 0.25% trypsin-1 mM EDTA, and penicillin-streptomycin were purchased from Invitrogen Corp. (Carlsbad, Calif.). The FLIPR® Calcium 4 assay kit was purchased from Molecular Devices (Sunnyvale, Calif.).
The cDNAs for the human TRPV1 receptor (hTRPV1) were isolated by reverse transcriptase-polymerase chain reaction (RT-PCR) from human small intestine poly A+RNA supplied by Clontech (Palo Alto, Calif.) using primers designed surrounding the initiation and termination codons identical to the published sequences (Hayes et al. Pain 2000, 88, 205-215). The resulting cDNA PCR products were subcloned into pCIneo mammalian expression vector (Promega) and fully sequenced using fluorescent dye-terminator reagents (Prism, Perkin-Elmer Applied Biosystems Division) and a Perkin-Elmer Applied Biosystems Model 373 DNA sequencer or Model 310 genetic analyzer. Expression plasmids encoding the hTRPV1 cDNA were transfected individually into 1321N1 human astrocytoma cells using Lipofectamine. Forty-eight hours after transfection, the neomycin-resistant cells were selected with growth medium containing 800 μg/mL Geneticin (Gibco BRL). Surviving individual colonies were isolated and screened for TRPV1 receptor activity. Cells expressing recombinant homomeric TRPV1 receptors were maintained at 37° C. in DMEM containing 4 mM L-glutamine, 300 μg/mL G418 (Cal-biochem) and 10% fetal bovine serum under a humidified 5% CO2 atmosphere.
The functional activity of compounds at the TRPV1 receptor was determined by measurement of intracellular Ca^2+ levels ([Ca^2+]i) using the Fluorescence Imaging Plate Reader (FLIPR)^TETRA®. All compounds were tested over a 12-point one-half-log concentration range. Compound stocks, 10 mM, were prepared in DMSO, and diluted serially across a 384-well plate using a Bravo BenchCel workstation (Agilent Technologies, Santa Clara, Calif.).
On the day of the experiment growth medium was removed, and the no-wash FLIPR® Calcium-4 dye (λEX=470-495 nm, λEM=515-575 nm) was added to each well using the Multidrop® dispenser. Cells were incubated for 90-120 minutes in the dark at 25° C. Test compounds were dissolved in DMSO, and plates were prepared using an Agilent Bravo workstation (Agilent Technologies Inc., Santa Clara, Calif.). Compounds were added to the cells 3 minutes prior to the addition of a pH 5.0 solution. Reagents were delivered at a rate of 40 μL/sec, and the final assay volume was 80 μL. Acidic pH solutions were prepared by titration of DPBS/MES with 1 N HCl. The intensity of the fluorescence was captured and digitally transferred to an interfaced PC.

For experiment [2], the target named is T1, human TRPV1 receptor (hTRPV1). The experiment is described as follows: Capsaicin activation assay (FLIPR intracellular Ca2+). Format: cell-based. The note with it: Table 1; inhibition of capsaicin-induced intracellular Ca2+ increase, HEK293 cells expressing human TRPV1; read-out: hTRPV1 cap IC50. On the procedure:
Dulbecco's modified Eagle medium (D-MEM) (with 4.5 mg/mL glucose) and fetal bovine serum were obtained from Hyclone Laboratories, Inc. (Logan, Utah). Dulbecco's phosphate-buffered saline (D-PBS) (with 1 mg/mL glucose and 3.6 mg/l Na pyruvate, without phenol red), L-glutamine, hygromycin B, and Lipofectamine® were obtained from Life Technologies (Grand Island, N.Y.). G418 sulfate was obtained from Calbiochem-Novabiochem Corp. (San Diego, Calif.). Capsaicin (8-methyl-N-vanillyl-6-nonenamide) was obtained from Sigma-Aldrich, Co. (St. Louis, Mo.). Fluo-4 AM (N-[4-[6-[(acetyloxy)methoxy]-2,7-difluoro-3-oxo-3H-xanthen-9-yl]-2-[2-[2-[bis[2-[(acetyloxy)methoxy]-2-oxyethyl]amino]-5-methyl phenoxy]ethoxy]phenyl]-N-[2-[(acetyloxy)methoxy]-2-oxyethyl]-glycine, (acetyloxy)methyl ester) was purchased from Molecular Probes (Eugene, Oreg.). […]
The functional activity of compounds at the TRPV1 receptor was determined by measurement of intracellular Ca^2+ levels ([Ca^2+]i) using the Fluorescence Imaging Plate Reader (FLIPR)^TETRA®. All compounds were tested over a 12-point one-third-log concentration range. Compound stocks, 10 mM, were prepared in DMSO, and diluted serially across a 384-well plate using a Bravo BenchCel workstation (Agilent Technologies, Santa Clara, Calif.). A stock concentration of capsaicin (10 mM) was made in DMSO, and diluted in D-PBS to a final concentration of 200 nM (4×). On the day prior to the experiment, recombinant HEK293 cells that stably express human TRPV1 were removed from tissue culture flasks and plated in growth medium into black-walled clear-bottom 384-well Biocoat™ poly-D-lysine assay plates (BD Biosciences, Bedford, Mass.) using a Multidrop® dispenser (ThermoScientific, Waltham, Mass.). On the day of the experiment, growth medium was removed, and the no-wash FLIPR® Calcium-4 dye (λEX=470-495 nm, λEM=515-575 nm; Molecular Devices, Sunnyvale, Calif.) was added to each well using the Multidrop® dispenser. Cells were incubated for 90-120 minutes in the dark at room temperature. Test compounds were added to the cells 3 minutes prior to the addition of 200 nM capsaicin (4×), and the final assay volume was 80 μL. Fluorescence readings were made at 1 to 5 second intervals over the course of the experimental run. The peak increase in relative fluorescence units (minus baseline) was calculated, and expressed as a percentage of the 50 nM capsaicin (control) response.

The results in this text go back to patent US8802711B2, “TRPV1 antagonists” (AbbVie Inc., priority 2011, dated 2014).

Broadly, the IC50 is the concentration that gives 50% inhibition.

T1 sequence (Q8NER1 whole entry): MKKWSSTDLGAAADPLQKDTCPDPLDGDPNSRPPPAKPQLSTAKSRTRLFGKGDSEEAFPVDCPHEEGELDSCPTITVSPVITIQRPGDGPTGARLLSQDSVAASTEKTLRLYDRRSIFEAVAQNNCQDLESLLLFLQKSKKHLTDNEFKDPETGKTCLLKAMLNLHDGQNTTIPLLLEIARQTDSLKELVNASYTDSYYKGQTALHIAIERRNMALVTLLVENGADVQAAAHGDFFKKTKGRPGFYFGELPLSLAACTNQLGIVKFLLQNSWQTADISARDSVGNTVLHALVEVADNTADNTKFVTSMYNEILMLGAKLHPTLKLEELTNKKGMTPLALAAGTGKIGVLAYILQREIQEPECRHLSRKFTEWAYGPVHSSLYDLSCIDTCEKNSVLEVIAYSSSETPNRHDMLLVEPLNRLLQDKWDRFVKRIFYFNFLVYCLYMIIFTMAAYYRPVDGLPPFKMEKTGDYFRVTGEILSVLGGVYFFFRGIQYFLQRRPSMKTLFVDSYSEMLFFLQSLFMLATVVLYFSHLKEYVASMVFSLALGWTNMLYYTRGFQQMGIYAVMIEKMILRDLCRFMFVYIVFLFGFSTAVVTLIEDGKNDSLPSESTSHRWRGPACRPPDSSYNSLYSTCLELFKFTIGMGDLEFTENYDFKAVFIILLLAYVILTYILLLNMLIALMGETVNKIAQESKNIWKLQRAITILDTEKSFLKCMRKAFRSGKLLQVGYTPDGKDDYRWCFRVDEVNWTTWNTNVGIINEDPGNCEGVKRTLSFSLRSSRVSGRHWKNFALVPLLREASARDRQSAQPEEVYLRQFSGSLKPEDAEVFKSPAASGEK

In the case of `O=C1CCc2ccc(NC(=O)N[C@H]3CC[C@@H](c4ccccc4)C3)cc2N1` [Example 26, 1-(2-oxo-1,2,3,4-tetrahydroquinolin-7-yl)-3-[(1S,3R)-3-phenylcyclopentyl]urea], the remaining activity at 37.5 µM in experiment [1] was found to be 65%. Further, in experiment [2], the IC50 came to 544 nM.
For `CC(C)(C)c1ccc(C2CCCC(NC(=O)Nc3cccc4[nH]ncc34)C2)cc1` (stereo not drawn) [Example 29, 1-[3-(4-tert-butylphenyl)cyclohexyl]-3-(1H-indazol-4-yl)urea] the same measures were 68% and 1730 nM.
For `O=C(Nc1cccc2[nH]ncc12)NC1CCCC(c2ccc(C(F)(F)F)cc2)C1` (stereo not drawn) [Example 30, 1-(1H-indazol-4-yl)-3-{3-[4-(trifluoromethyl)phenyl]cyclohexyl}urea] the same measures were 26% and 1050 nM.
For `O=C(Nc1cccc2[nH]ncc12)N[C@@H]1CCC[C@@H](c2ccc(C(F)(F)F)cc2)C1` [Example 31, 1-(1H-indazol-4-yl)-3-{(1R,3R)-3-[4-(trifluoromethyl)phenyl]cyclohexyl}urea] the same measures were 35% and 1840 nM.
Regarding `O=C(Nc1cccc2[nH]ncc12)N[C@H]1CCC[C@H](c2ccc(C(F)(F)F)cc2)C1` [Example 32, 1-(1H-indazol-4-yl)-3-{(1S,3S)-3-[4-(trifluoromethyl)phenyl]cyclohexyl}urea], the remaining activity at 37.5 µM in experiment [1] worked out at 32%. Besides, the IC50 in experiment [2] was determined as 795 nM.
With `O=C(Nc1cccc2[nH]ncc12)N[C@H]1CCC[C@@H](c2ccc(C(F)(F)F)cc2)C1` [Example 33, 1-(1H-indazol-4-yl)-3-{(1S,3R)-3-[4-(trifluoromethyl)phenyl]cyclohexyl}urea], in experiment [1], the remaining activity at 37.5 µM came to 68%. Moreover, the half-inhibitory concentration (IC50) in experiment [2] was found to be 8640 nM.
For the compound `O=C(Nc1cccc2[nH]ncc12)N[C@H]1CCC[C@H](c2ccccc2)C1` [Example 35, 1-(1H-indazol-4-yl)-3-[(1S,3S)-3-phenylcyclohexyl]urea], the remaining activity at 37.5 µM in experiment [1] was 11%. Moreover, the half-inhibitory concentration (IC50) in experiment [2] turned out to be 292 nM.
In the same order, the values of `O=C(Nc1cccc2[nH]ncc12)N[C@@H]1CCC[C@H](c2ccccc2)C1` [Example 36, 1-(1H-indazol-4-yl)-3-[(1R,3S)-3-phenylcyclohexyl]urea] are 8% and 56 nM.
For `CC(C)(C)c1ccc(C2CCC(NC(=O)Nc3cccc4[nH]ncc34)C2)cc1` (stereo not drawn) [Example 37, 1-[3-(4-tert-butylphenyl)cyclopentyl]-3-(1H-indazol-4-yl)urea] the same measures were 6% and 427 nM.
For `COc1ccc(C2CCC(NC(=O)Nc3cccc4[nH]ncc34)C2)cc1` (stereo not drawn) [Example 40, 1-(1H-indazol-4-yl)-3-[3-(4-methoxyphenyl)cyclopentyl]urea] the same measures were 1% and 78 nM.
On to `O=C(Nc1cccc2[nH]ncc12)N[C@H]1CC[C@H](c2ccc(C(F)(F)F)cc2)C1` [Example 41, 1-(1H-indazol-4-yl)-3-{(1S,3S)-3-[4-(trifluoromethyl)phenyl]cyclopentyl}urea], for which the remaining activity at 37.5 µM in experiment [1] is 1%. For the same compound, the IC50 in experiment [2] amounted to 311 nM.
For `O=C(Nc1cccc2[nH]ncc12)N[C@@H]1CC[C@H](c2ccc(C(F)(F)F)cc2)C1` [Example 42, 1-(1H-indazol-4-yl)-3-{(1R,3S)-3-[4-(trifluoromethyl)phenyl]cyclopentyl}urea] the same measures were 3% and 17 nM.
In the same order, the values of `O=C(Nc1cccc2[nH]ncc12)N[C@H]1CC[C@@H](c2ccc(C(F)(F)F)cc2)C1` [Example 43, 1-(1H-indazol-4-yl)-3-{(1S,3R)-3-[4-(trifluoromethyl)phenyl]cyclopentyl}urea] are 55% and 221 nM.
For `O=C(Nc1cccc2[nH]ncc12)N[C@@H]1CC[C@@H](c2ccc(C(F)(F)F)cc2)C1` [Example 44, 1-(1H-indazol-4-yl)-3-{(1R,3R)-3-[4-(trifluoromethyl)phenyl]cyclopentyl}urea] the same measures were 13% and 169 nM.
With `O=C(Nc1cccc2[nH]ncc12)NC1CC[C@H](c2ccc(F)cc2)C1` (stereo partly drawn) [Example 45, 1-[(3S)-3-(4-fluorophenyl)cyclopentyl]-3-(1H-indazol-4-yl)urea], the remaining activity at 37.5 µM in experiment [1] was found to be 9%. In addition, the IC50 in experiment [2] was 26 nM.
In the same order, the values of `CSc1ccc([C@H]2CCC(NC(=O)Nc3cccc4[nH]ncc34)C2)cc1` (stereo partly drawn) [Example 46, 1-(1H-indazol-4-yl)-3-{(3S)-3-[4-(methylsulfanyl)phenyl]cyclopentyl}urea] are 7% and 87 nM.
In the same order, the values of `CN(C)c1ccc([C@H]2CCC(NC(=O)Nc3cccc4[nH]ncc34)C2)cc1` (stereo partly drawn) [Example 47, 1-{(3S)-3-[4-(dimethylamino)phenyl]cyclopentyl}-3-(1H-indazol-4-yl)urea] are 3% and 290 nM.
For `O=C(Nc1cccc2[nH]ncc12)N[C@H]1CC[C@@H](C2CCCCC2)C1` [Example 49, 1-((1S,3R)-3-cyclohexylcyclopentyl)-3-(1H-indazol-4-yl)urea] the same measures were 68% and 66 nM.
For `Cn1c(=O)ccc2c(NC(=O)N[C@H]3CC[C@@H](c4ccccc4)C3)cccc21` [Example 50, 1-(1-methyl-2-oxo-1,2-dihydroquinolin-5-yl)-3-((1S,3R)-3-phenylcyclopentyl)urea], the remaining activity at 37.5 µM in experiment [1] was determined as 59%. Also, the IC50 in experiment [2] amounted to 78 nM.
For `O=C(Nc1cccc2[nH]ncc12)N[C@H]1C[C@@H](c2ccccc2)[C@@H](O)[C@H]1O` [Example 52, 1-((1S,2S,3R,4S)-2,3-dihydroxy-4-phenylcyclopentyl)-3-(1H-indazol-4-yl)urea] the same measures were 67% and 22400 nM.
For `O=C(Nc1cccc2[nH]ncc12)N[C@H]1C[C@@H](c2ccccc2)[C@H](O)[C@@H]1O` [Example 53, 1-((1S,2R,3S,4S)-2,3-dihydroxy-4-phenylcyclopentyl)-3-(1H-indazol-4-yl)urea] the same measures were 84% and more than 37500 nM.
